Assay: micellar particle size and polydispersity index (ZetaSizer, dynamic light scattering) of drug formulations at different dilutions
Assay type: physicochemical
Procedure: The particle size of the micelles in the composition is typically in the range of about 5 to about 150 nm. The particle size may be determined e.g. using Dynamic Light Scattering (DLS) in 0.9% NaCl at 1 mg/mL drug concentration, preferably using a red laser with a wavelength of 633 nm.
Micellar size was measured using a ZetaSizer from Malvern Panalytical. […]
20 mg of example 1 was dispensed into a 25 mL round bottom flask and dissolved in methanol (3 mL). 800 μL of a stock solution of docetaxel in methanol (5 mg/mL) was added. The solution was evaporated to dryness in a rotary evaporator. Final drying was performed in a desiccator to remove residual solvent. Hydration of the dried film was performed by adding water for injection (1.0 mL) to a concentration of 4 mg/mL of docetaxel. The 4 mg/mL concentration was further diluted with 0.9% sodium chloride according to the table below. […]
A serial dilution was performed for the system docetaxel:compound 1. A stock solution of docetaxel in methanol was mixed with a stock solution of the micelle forming agent (compound 1) in a round bottom flask at a weight ratio of 1:5. The mixture was evaporated to dryness in a rotary evaporator. Final drying was performed in a desiccator to remove residual solvent. Hydration of the dried film was performed by adding water for injection (1.0 mL) to a concentration of 1 mg/mL of docetaxel. The resulting solution was filtered through a 0.22 μm sterile filter and further diluted with 0.9% sodium chloride solution.
4.5 mg of compound 1 was dispensed into a 25 mL round bottom flask and dissolved in methanol (2 mL). 1500 μL of a stock solution of cabazitaxel in methanol (1.00 mg/mL) was added. The solution was evaporated to dryness in a rotary evaporator. Final drying was performed in a desiccator to remove residual solvent. […]

[1] = micelles with cabazitaxel, ratio 3:1, 0.9% NaCl, cabazitaxel conc. 0.25 mg/mL
[2] = micelles with cabazitaxel, ratio 3:1, 0.9% NaCl, cabazitaxel conc. 0.5 mg/mL
[3] = micelles with cabazitaxel, ratio 3:1, 0.9% NaCl, cabazitaxel conc. 1 mg/mL
[4] = micelles with cyclosporin, ratio 3:1, 0.9% NaCl, cyclosporin conc. 0.25 mg/mL
[5] = micelles with cyclosporin, ratio 3:1, 0.9% NaCl, cyclosporin conc. 0.5 mg/mL
[6] = micelles with cyclosporin, ratio 3:1, 0.9% NaCl, cyclosporin conc. 1 mg/mL
[7] = micelles with docetaxel, ratio 3:1, 0.9% NaCl, docetaxel conc. 0.25 mg/mL
[8] = micelles with docetaxel, ratio 3:1, 0.9% NaCl, docetaxel conc. 0.5 mg/mL
[9] = micelles with docetaxel, ratio 3:1, 0.9% NaCl, docetaxel conc. 1 mg/mL
[10] = micelles with docetaxel, ratio 5:1, docetaxel conc. 0.25 mg/mL
[11] = micelles with docetaxel, ratio 5:1, docetaxel conc. 0.5 mg/mL
[12] = micelles with docetaxel, ratio 5:1, docetaxel conc. 1 mg/mL
[13] = micelles with docetaxel, 1.2 mg docetaxel + 3.8 mg compound, water 1.2 mL + 0.9% NaCl 1.0 mL
[14] = serial dilution, docetaxel:compound 1:5, compound conc. 0.08 mM
[15] = serial dilution, docetaxel:compound 1:5, compound conc. 0.12 mM
[16] = serial dilution, docetaxel:compound 1:5, compound conc. 0.15 mM
[17] = serial dilution, docetaxel:compound 1:5, compound conc. 0.3 mM
[18] = serial dilution, docetaxel:compound 1:5, compound conc. 0.6 mM
[19] = serial dilution, docetaxel:compound 1:5, compound conc. 1.2 mM
[20] = serial dilution, docetaxel:compound 1:5, compound conc. 2.4 mM
[21] = serial dilution, docetaxel:compound 1:5, compound conc. 4.8 mM
[22] = micelles with docetaxel, ratio 2:1, 0.9% NaCl, docetaxel conc. 0.25 mg/mL
[23] = micelles with docetaxel, ratio 2:1, 0.9% NaCl, docetaxel conc. 0.5 mg/mL
[24] = micelles with docetaxel, ratio 2:1, 0.9% NaCl, docetaxel conc. 1 mg/mL

Structure (SMILES): COc1cc(C)c(/C=C/C(C)=C/C=C/C(C)=C/C(=O)N(CCS(=O)(=O)[O-])C2CCCCC2)c(C)c1C.[Na+] [Compound 1]
- trend of micellar size and RSD during dilution (docetaxel:compound 1:5, serial dilution with 0.9% NaCl): The micellar size and RSD showed no significant trend during dilution
- Particle size [1]: 121.2 nm
- Polydispersity index [1]: 0.079
- Particle size [2]: 111.2 nm
- Polydispersity index [2]: 0.102
- Particle size [3]: 87.6 nm
- Polydispersity index [3]: 0.145
- Particle size [4]: 60.1 nm
- Polydispersity index [4]: 0.258
- Particle size [5]: 53.3 nm
- Polydispersity index [5]: 0.293
- Particle size [6]: 41.7 nm
- Polydispersity index [6]: 0.212
- Particle size [7]: 56.0 nm
- Polydispersity index [7]: 0.29
- Particle size [8]: 52.6 nm
- Polydispersity index [8]: 0.25
- Particle size [9]: 47.7 nm
- Polydispersity index [9]: 0.24
- Particle size [10]: 49.6 nm
- Polydispersity index [10]: 0.25
- Particle size [11]: 41.5 nm
- Polydispersity index [11]: 0.24
- Particle size [12]: 29.2 nm
- Polydispersity index [12]: 0.24
- Particle size [13]: 7.0 nm
- Polydispersity index [13]: 0.20
- Particle size [14]: 33.73 nm
- Polydispersity index, pdi [14]: 0.45
- Particle size [15]: 32.72 nm
- Polydispersity index, pdi [15]: 0.39
- Particle size [16]: 34.06 nm
- Polydispersity index, pdi [16]: 0.34
- Particle size [17]: 37.85 nm
- Polydispersity index, pdi [17]: 0.25
- Particle size [18]: 36.53 nm
- Polydispersity index, pdi [18]: 0.18
- Particle size [19]: 36.5 nm
- Polydispersity index, pdi [19]: 0.16
- Particle size [20]: 36.2 nm
- Polydispersity index, pdi [20]: 0.14
- Particle size [21]: 35.4 nm
- Polydispersity index, pdi [21]: 0.11

Structure (SMILES): COc1cc(C)c(/C=C/C(C)=C/C=C/C(C)=C/C(=O)N(C)CCS(=O)(=O)[O-])c(C)c1C.[Na+] [Compound 3]
- Particle size [22]: 14.0 nm
- Polydispersity index [22]: 0.53
- Particle size [23]: 19.9 nm
- Polydispersity index [23]: 0.76
- Particle size [24]: 13.5 nm
- Polydispersity index [24]: 0.52
- Particle size [7]: 11.8 nm
- Polydispersity index [7]: 0.27
- Particle size [8]: 11.3 nm
- Polydispersity index [8]: 0.25
- Particle size [9]: 9.30 nm
- Polydispersity index [9]: 0.33

Reference: US20260337156A1, “SOLUBILIZING COMPOUNDS” (Vivesto AB, priority 2022, published 2026)
